Measured values: patent US8592161B2, “Mutational profiles in HIV-1 protease correlated with phenotypic drug resistance” (Janssen R&D Ireland, priority 2002, dated 2013)

System: HIV-1/LAI
Test: In vitro antiviral activity in acutely infected MT4 cells, wild type
Type: cell-based
Settings: Human immunodeficiency virus 1, MT4, Table 1, wild-type HIV/LAI, read-out: median EC50
Method: (§1) Determination of the antiviral activity of a compound was done as described in Pauwels R. et al. (J Virol Methods 1988; 20(4):309-21). Various concentrations of the test compounds were brought into each well of a flat-bottom microtiter plate. Subsequently, HIV and MT4 cells were added to a final concentration of 200-250 50% cell culture infectious doses (CCID50)/well and 30,000 cells/well, respectively. After 5 days of incubation (37° C., 5% CO2), the cytopathic effect of the replicating virus was determined by the tetrazolium colorimetric MTT method. The dose protecting 50% of the cells from virus cytopathic effect was defined as the EC50, while the dose achieving 90% protection was defined as the EC90.
(§2) MT4-LTR-EGFP cells were infected at a multiplicity of infection (MOI) of 0.01 to 0.001 CCID50/cell in the presence of inhibitor. The starting concentration of the inhibitor was two to tee times the EC50, a suboptimal concentration. The cultures were sub-cultivated and scored microscopically on virus-induced fluorescence and cytopathicity every 3-4 days. The cultures were sub-cultivated in the presence of the same compound concentration until signs of virus replication were observed. The escaping virus was further cultivated in the presence of the same inhibitor concentration in order to enrich the population in resistant variants. If full virus breakthrough was observed the supernatant was collected and stored (new virus strain). Afterwards, the same virus was challenged with a higher compound concentration in order to select variants able to grow in the presence of as high as possible inhibitor concentrations. From the new viruses, a virus stock was grown in the absence of inhibitor.
(§3) In vitro drug selection experiments starting from wild-type HIV-1 under pressure of compound 1, compound 2, and Nelfinavir (NFV) have been performed. Tables 1, 2, 3, 4, and 5 show the genotypic and phenotypic characterization of the selected strains.

Structure (SMILES)	EC50 [nM]
CC(C)(C)NC(=O)[C@@H]1C[C@@H]2CCCC[C@@H]2CN1C[C@@H](O)[C@H](Cc1ccccc1)NC(=O)[C@H](CC(N)=O)NC(=O)c1ccc2ccccc2n1 [Saquinavir]	7.8

Same assay, conditions: Human immunodeficiency virus 1, MT4, Table 2, wild-type HIV-1/LAI, read-out: median EC50

Structure (SMILES)	EC50 [nM]
CC(C)(C)NC(=O)[C@@H]1C[C@@H]2CCCC[C@@H]2CN1C[C@@H](O)[C@H](Cc1ccccc1)NC(=O)[C@H](CC(N)=O)NC(=O)c1ccc2ccccc2n1 [Saquinavir]	5.6

Same assay, conditions: Human immunodeficiency virus 1, MT4, Table 3, wild-type HIV-1/LAI, read-out: median EC50

Structure (SMILES)	EC50 [nM]
CC(C)(C)NC(=O)[C@@H]1C[C@@H]2CCCC[C@@H]2CN1C[C@@H](O)[C@H](Cc1ccccc1)NC(=O)[C@H](CC(N)=O)NC(=O)c1ccc2ccccc2n1 [Saquinavir]	5.6

Same assay, conditions: Human immunodeficiency virus 1, MT4, Table 4, wild-type HIV-1/LAI, read-out: median EC50

Structure (SMILES)	EC50 [nM]
CC(C)(C)NC(=O)[C@@H]1C[C@@H]2CCCC[C@@H]2CN1C[C@@H](O)[C@H](Cc1ccccc1)NC(=O)[C@H](CC(N)=O)NC(=O)c1ccc2ccccc2n1 [Saquinavir]	5.6

Same assay, conditions: Human immunodeficiency virus 1, MT4, Table 5, wild-type HIV-1/LAI, read-out: median EC50

Structure (SMILES)	EC50 [nM]
CC(C)(C)NC(=O)[C@@H]1C[C@@H]2CCCC[C@@H]2CN1C[C@@H](O)[C@H](Cc1ccccc1)NC(=O)[C@H](CC(N)=O)NC(=O)c1ccc2ccccc2n1 [Saquinavir]	5.6

System: HIV-1 strain selected with Comp 1 (20 nM, 94 days), protease R41G/R V82V/I
Test: In vitro antiviral activity in acutely infected MT4 cells, selected strain
Type: cell-based
Settings: Human immunodeficiency virus 1, Table 4, strain R41G/R V82V/I (Comp 1 20 nM, 94 days), read-out: median EC50
Method: as §1, §2, §3

Structure (SMILES)	EC50 [nM]
CC(C)(C)NC(=O)[C@@H]1C[C@@H]2CCCC[C@@H]2CN1C[C@@H](O)[C@H](Cc1ccccc1)NC(=O)[C@H](CC(N)=O)NC(=O)c1ccc2ccccc2n1 [Saquinavir]	0.9

Same assay, conditions: Table 4, strain R41G/R V82V/I (Comp 1 20 nM, 94 days)

Structure (SMILES)	median FC (fold change in EC50 as compared to wild type)
CC(C)(C)NC(=O)[C@@H]1C[C@@H]2CCCC[C@@H]2CN1C[C@@H](O)[C@H](Cc1ccccc1)NC(=O)[C@H](CC(N)=O)NC(=O)c1ccc2ccccc2n1 [Saquinavir]	0

System: HIV-1 strain selected with Comp 1 (40 nM, 161 days), protease R41G V82I
Test: as above
Type: cell-based
Settings: Human immunodeficiency virus 1, Table 4, strain R41G V82I (Comp 1 40 nM, 161 days), read-out: median EC50
Method: as §1, §2, §3

Structure (SMILES)	EC50 [nM]
CC(C)(C)NC(=O)[C@@H]1C[C@@H]2CCCC[C@@H]2CN1C[C@@H](O)[C@H](Cc1ccccc1)NC(=O)[C@H](CC(N)=O)NC(=O)c1ccc2ccccc2n1 [Saquinavir]	1

Same assay, conditions: Table 4, strain R41G V82I (Comp 1 40 nM, 161 days)

Structure (SMILES)	median FC (fold change in EC50 as compared to wild type)
CC(C)(C)NC(=O)[C@@H]1C[C@@H]2CCCC[C@@H]2CN1C[C@@H](O)[C@H](Cc1ccccc1)NC(=O)[C@H](CC(N)=O)NC(=O)c1ccc2ccccc2n1 [Saquinavir]	0

System: HIV-1 strain selected with Comp 1 (40 nM, 175 days), protease R41G V82I
Test: as above
Type: cell-based
Settings: Human immunodeficiency virus 1, Table 4, strain R41G V82I (Comp 1 40 nM, 175 days), read-out: median EC50
Method: as §1, §2, §3

Structure (SMILES)	EC50 [nM]
CC(C)(C)NC(=O)[C@@H]1C[C@@H]2CCCC[C@@H]2CN1C[C@@H](O)[C@H](Cc1ccccc1)NC(=O)[C@H](CC(N)=O)NC(=O)c1ccc2ccccc2n1 [Saquinavir]	0.8

Same assay, conditions: Table 4, strain R41G V82I (Comp 1 40 nM, 175 days)

Structure (SMILES)	median FC (fold change in EC50 as compared to wild type)
CC(C)(C)NC(=O)[C@@H]1C[C@@H]2CCCC[C@@H]2CN1C[C@@H](O)[C@H](Cc1ccccc1)NC(=O)[C@H](CC(N)=O)NC(=O)c1ccc2ccccc2n1 [Saquinavir]	0

System: HIV-1/LAI strain selected with Comp 1 (100 nM, 139 days), protease S37S/N R41R/K K70E
Test: as above
Type: cell-based
Settings: Human immunodeficiency virus 1, Table 2, strain S37S/N R41R/K K70E (Comp 1 100 nM, 139 days), read-out: median EC50
Method: as §1, §2, §3

Structure (SMILES)	EC50 [nM]
CC(C)(C)NC(=O)[C@@H]1C[C@@H]2CCCC[C@@H]2CN1C[C@@H](O)[C@H](Cc1ccccc1)NC(=O)[C@H](CC(N)=O)NC(=O)c1ccc2ccccc2n1 [Saquinavir]	0.7

Same assay, conditions: Table 2, strain S37S/N R41R/K K70E (Comp 1 100 nM, 139 days)

Structure (SMILES)	median FC (fold change in EC50 as compared to wild type)
CC(C)(C)NC(=O)[C@@H]1C[C@@H]2CCCC[C@@H]2CN1C[C@@H](O)[C@H](Cc1ccccc1)NC(=O)[C@H](CC(N)=O)NC(=O)c1ccc2ccccc2n1 [Saquinavir]	0.1

System: HIV-1/LAI strain selected with Comp 1 (100 nM, 195 days), protease S37N R41S K70E
Test: as above
Type: cell-based
Settings: Human immunodeficiency virus 1, Table 2, strain S37N R41S K70E (Comp 1 100 nM, 195 days), read-out: median EC50
Method: as §1, §2, §3

Structure (SMILES)	EC50 [nM]
CC(C)(C)NC(=O)[C@@H]1C[C@@H]2CCCC[C@@H]2CN1C[C@@H](O)[C@H](Cc1ccccc1)NC(=O)[C@H](CC(N)=O)NC(=O)c1ccc2ccccc2n1 [Saquinavir]	0.9
